Patent US10344026B2, “Compositions and methods of targeting mutant K-ras” (NANTBIO, INC., priority 2017, dated 2019)

Key:
Assay type in all cases: cell-based
K-Ras G12D = biological target: T1, K-Ras G12D (Homo sapiens, UniProt P01116, G12D); experiment: G-LISA Ras activation, 293H cells transfected with G12D mutant; conditions: compound 1 hour
T1 construct: expressed in transfected cells; host or cells: 293H cells
Procedure, shortened: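 Active Ras was quantified by G-LISA in lysates of 293H cells transiently expressing wild-type or mutant Ras. Compounds (3.125-25 μM) were applied for 1 hour; only wild-type transfected cells were stimulated with 100 ng/ml EGF for 2 minutes.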

[1] = test system: phospho-ERK in HCC827 (Wild-type); experiment: In-Cell Western phospho-ERK, HCC827; conditions: Homo sapiens, 1 h; HCC827, one hour treatment; read-out: In-Cell Western HCC827 (Wild-type) Erk (P)
Protocol: (§1) In-cell phosphorylation assays for Erk and Akt were performed on several of the compounds and exemplary results are shown in Table 3 below using HCC827 and A375 cell lines for wild type K-Ras and Panc1 and Panc10.05 cell lines for G12D K-Ras mutants. Results are expressed in μM and corresponding structures are shown in FIGS. 2A-2G and Examples 1-152, above.
(§2) Cells are seeded in complete medium into black sided, clear-bottom 384-well microplates at 3000 cells/[…]/well. Plates are returned to 37° C. CO2 incubator for 18 hr. Drug is made as 200× in DMSO and diluted into medium to 10×. To each well is added 4 ul 10× test article or controls, and plates are returned to the incubator. Final assay DMSO concentration is 0.5%. After one hour, cells are fixed in formaldehyde, rinsed & permeabilized with triton X-100, and blocked with BSA/Goat serum blocking solution. Primary phospho-Akt and phospho-ERK antibodies are added and plates are incubated overnight at 4° C. Plates are rinsed with Tween-20 wash buffer and secondary antibody (Goat anti-rabbit, Thermofisher) is added. After 2 hours, plates are rinsed in Tween-20 wash buffer, and then PBS. Plates are imaged on the Celigo (Nexcelom) and cellular fluorescence is quantitated. Full inhibition of phospho-Akt is achieved with 1 uM BEZ235 (Sellekchem), while full inhibition of phospho-ERK is achieved with 1 uM MEK Inhibitor II Calbiochem). EC50 values are calculated using Graphpad Prism.

[2] = test system: HCC827 (K-Ras wild type cell line); experiment: Viability assay (CellTiterBlue, 72 hr) HCC827; conditions: Homo sapiens, GI50, CellTiterBlue, HCC827 K-Ras wild-type
Procedure, shortened: (§3)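 Each line was plated at 1000 cells per well and incubated for 72 hr with compound after an 18 hr settling period. CellTiterBlue fluorescence measured the result, and GI50 was fitted relative to DMSO and tamoxifen controls.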

[3] = test system: phospho-ERK in Panc1 (G12D); experiment: In-Cell Western phospho-ERK, Panc1; conditions: Homo sapiens, PANC-1, 1 h; Panc1, one hour treatment; read-out: In-Cell Western Panc1 (G12D) Erk (P)
Procedure, shortened: (§4)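 Read-out: imaged cellular fluorescence after phospho-ERK/phospho-Akt immunostaining; EC50 derived. Cells plated 3000/well, 18 hr 37° C, compound 1 hr, 0.5% DMSO. Full-inhibition controls: 1 uM BEZ235 (pAkt), 1 uM MEK Inhibitor II (pERK).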

[4] = test system: A375 (K-Ras wild type cell line); experiment: Viability assay (CellTiterBlue, 72 hr) A375; conditions: Homo sapiens, A-375, GI50, CellTiterBlue
Protocol: Viability assays were performed on exemplary compounds and Table 2 below lists exemplary results for selected compounds tested on K-Ras wild type cell lines (Ishikawa, U87-MG, HCC827, and A375) and various K-Ras mutant cell lines (Panc1-G12D; Panc10.05-G12D; HCT116-G31D). Results are expressed in μM and corresponding structures are shown in FIGS. 2A-2G and Examples 1-152, above.
Cells are counted and seeded at 1000 cells/36 ul medium/well into 384-well microplates. Cells are returned to 37° C. CO2 incubator for 18 hr. Drug is made as 200× in DMSO and diluted into medium to 10×. To each well is added 4 ul 10× drug, and plates are returned to the incubator. Final assay DMSO concentration is 0.5%. After 72 hr, 8 ul CellTiterBlue (Promega) is added to each well. After 3 hr, fluorescence (Ex550/Em590) is determined on the Victor Plate Reader (Perkin Elmer). Assay range is determined by DMSO control (100% viability) and 100 uM tamoxifen (0% viability). GI50 values are calculated using Graphpad Prism.

[5] = test system: phospho-ERK in A375 (Wild-type); experiment: In-Cell Western phospho-ERK, A375; conditions: Homo sapiens, A-375, 1 h; A375, one hour treatment; read-out: In-Cell Western A375 (Wild-type) Erk (P)
Protocol: as §1, §2

Panc10.05-G12D = experiment: Viability assay (CellTiterBlue, 72 hr) Panc10.05; conditions: Homo sapiens, Panc1005, GI50, CellTiterBlue, Panc10.05 K-Ras G12D, read-out: 72 hr Cell Viability Panc10.05 (G12D)
Procedure, shortened: as §3

[6] = test system: phospho-Akt in Panc10.05 (G12D); experiment: In-Cell Western phospho-Akt, Panc10.05; conditions: Homo sapiens, Panc1005, 1 h; Panc10.05, one hour treatment; read-out: In-Cell Western Panc10.05 (G12D) Akt (P)
Procedure, shortened: as §4

[7] = test system: phospho-ERK in Panc10.05 (G12D); experiment: In-Cell Western phospho-ERK, Panc10.05; conditions: Homo sapiens, Panc1005, 1 h; Panc10.05, one hour treatment; read-out: In-Cell Western Panc10.05 (G12D) Erk (P)
Procedure, shortened: as §4

[8] = test system: phospho-Akt in Panc1 (G12D); experiment: In-Cell Western phospho-Akt, Panc1; conditions: Homo sapiens, PANC-1, 1 h; Panc1, one hour treatment; read-out: In-Cell Western Panc1 (G12D) Akt (P)
Procedure, shortened: as §4

[9] = test system: phospho-Akt in A375 (Wild-type); experiment: In-Cell Western phospho-Akt, A375; conditions: Homo sapiens, A-375, 1 h; A375, one hour treatment; read-out: In-Cell Western A375 (Wild-type) Akt (P)
Protocol: as §1, §2

[10] = test system: Ishikawa (K-Ras wild type cell line); experiment: Viability assay (CellTiterBlue, 72 hr) Ishikawa; conditions: Homo sapiens, GI50, CellTiterBlue, Ishikawa K-Ras wild-type
Procedure, shortened: as §3

[11] = test system: U87-MG (K-Ras wild type cell line); experiment: Viability assay (CellTiterBlue, 72 hr) U87-MG; conditions: Homo sapiens, U-87 MG, GI50, CellTiterBlue, U87-MG K-Ras wild-type
Procedure, shortened: as §3

Panc1-G12D = experiment: Viability assay (CellTiterBlue, 72 hr) Panc1; conditions: Homo sapiens, PANC-1, GI50, CellTiterBlue, Panc1 K-Ras G12D, read-out: 72 hr Cell Viability Panc1 (G12D)
Procedure, shortened: as §3

HCT116-G31D = experiment: Viability assay (CellTiterBlue, 72 hr) HCT116; conditions: Homo sapiens, HCT-116, GI50, CellTiterBlue, HCT116 K-Ras G13D, read-out: 72 hr Cell Viability HCT116 (G13D)
Procedure, shortened: as §3

T1 sequence (P01116 whole entry G12D): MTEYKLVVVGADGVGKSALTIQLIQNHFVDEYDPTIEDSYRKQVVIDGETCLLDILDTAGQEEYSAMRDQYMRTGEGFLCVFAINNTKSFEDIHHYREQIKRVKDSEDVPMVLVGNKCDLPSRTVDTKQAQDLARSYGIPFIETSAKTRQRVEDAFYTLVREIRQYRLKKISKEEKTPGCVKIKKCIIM

Structure (SMILES)	IC50 (K-Ras G12D)	EC50 [1]	IC50 [2]	EC50 [3]	IC50 [4]	EC50 [5]	IC50 (Panc10.05-G12D)	EC50 [6]	EC50 [7]	EC50 [8]	EC50 [9]	IC50 [10]	IC50 [11]	IC50 (Panc1-G12D)	IC50 (HCT116-G31D)
Cc1nc(C2CCCCC2)oc1C(=O)Nc1nc(-c2ccc3c(c2)CCC(=O)N3Cc2cccnc2)cs1 [Compound 101, 2-cyclohexyl-4-methyl-N-(4-(2-oxo-1-(pyridin-3-ylmethyl)-1,2,3,4-tetrahydroquinolin-6-yl)thiazole-2-yl)oxazole-5-carboxamide]	9.3 µM	14 µM	> 25 µM	18 µM	4 µM	> 25 µM	4 µM	> 25 µM	3 µM	> 25 µM	> 25 µM	2 µM	> 25 µM	2 µM	14 µM
CC(C)c1cc(C(=O)Nc2nc(-c3ccc4c(c3)CCC(=O)N4)cs2)n(C)n1 [Compound 44, 3-isopropyl-1-methyl-N-(4-(2-oxo-1,2,3,4-tetrahydroquinolin-6-yl)thiazol-2-yl)-1H-pyrazole-5-carboxamide]	4 µM	> 25 µM	> 25 µM	> 25 µM	> 25 µM	> 25 µM	2 µM	> 25 µM	> 25 µM	> 25 µM	> 25 µM	> 25 µM	> 25 µM	> 25 µM	> 25 µM
CCn1nccc1C(=O)Nc1nc(-c2ccc3c(c2)CCC(=O)N3)cs1 [Compound 46, 1-ethyl-N-(4-(2-oxo-1,2,3,4-tetrahydroquinolin-6-yl)thiazol-2-yl)-1H-pyrazole-5-carboxamide]	22.5 µM	> 25 µM	> 25 µM	> 25 µM	> 25 µM	> 25 µM	11 µM	13 µM	11 µM	> 25 µM	> 25 µM	> 25 µM	> 25 µM	> 25 µM	> 25 µM
CCc1nc(C)c(C(=O)Nc2nc(-c3ccc4c(c3)CCC(=O)N4C(C)c3cccnc3)cs2)o1 (stereo not drawn) [Compound 102, 2-ethyl-4-methyl-N-(4-(2-oxo-1-(1-(pyridin-3-yl)ethyl)-1,2,3,4-tetrahydroquinolin-6-yl)thiazol-2-yl)oxazole-5-carboxamide]	8.2 µM	11 µM	> 25 µM	8 µM	> 25 µM	26 µM	5 µM	> 25 µM	19 µM	> 25 µM	> 25 µM	> 25 µM	> 25 µM	> 25 µM	13 µM
Cc1nc(C)c(C(=O)Nc2nc(-c3ccc4c(c3)CCC(=O)N4Cc3cccnc3)cs2)s1 [Compound 105, 2,4-dimethyl-N-(4-(2-oxo-1-(pyridin-3-ylmethyl)-1,2,3,4-tetrahydroquinolin-6-yl)thiazol-2-yl)thiazole-5-carboxamide]	10.4 µM	19 µM	> 25 µM	5 µM	25 µM	> 25 µM	2 µM	> 25 µM	11 µM	> 25 µM	> 25 µM	> 25 µM	> 25 µM	12 µM	13 µM
CCn1nc(C2CC2)cc1C(=O)Nc1nc(-c2ccc3c(c2)CCC(=O)N3)cs1 [Compound 45, 3-cyclopropyl-1-ethyl-N-(4-(2-oxo-1,2,3,4-tetrahydroquinolin-6-yl)thiazol-2-yl)-1H-pyrazole-5-carboxamide]	8.8 µM	> 25 µM	> 25 µM	> 25 µM	> 25 µM	> 25 µM	3 µM	11 µM	6 µM	> 25 µM	> 25 µM	> 25 µM	> 25 µM	> 25 µM	> 25 µM
Cc1nc(C)c(C(=O)Nc2nc(-c3ccc4c(c3)CCC(=O)N4CCC(=O)N(C)C)cs2)o1 [Compound 103, N-(4-(1-(3-(dimethylamino)-3-oxopropyl)-2-oxo-1,2,3,4-tetrahydroquinolin-6-yl)thiazol-2-yl)-2,4-dimethyloxazole-5-carboxamide]	14.9 µM	14 µM	> 25 µM	> 25 µM	> 25 µM	29 µM	5 µM	> 25 µM	> 25 µM	> 25 µM	> 25 µM	> 25 µM	> 25 µM	> 25 µM	25 µM
Cn1nc(C(F)F)cc1C(=O)Nc1nc(-c2ccc3c(c2)CCC(=O)N3)cs1 [Compound 49, 3-(difluoromethyl)-1-methyl-N-(4-(2-oxo-1,2,3,4-tetrahydroquinolin-6-yl)thiazol-2-yl)-1H-pyrazole-5-carboxamide]	12.3 µM	> 25 µM	> 25 µM	> 25 µM	> 25 µM	> 25 µM	> 25 µM	20 µM	19 µM	> 25 µM	> 25 µM	> 25 µM	> 25 µM	> 25 µM	> 25 µM
